Experimental data from patent US20250108027A1, “TOPICAL DELIVERY OF EDTA COMPOSITIONS” (priority 2023, published 2025).
Values after ≈ are worked out from the molar mass of the structure shown.

What was measured:
E. Coli HC1-R2A-1 [1] = conditions: alone, 37° C., 24 h
Procedure: (§1) Microbroth dilution in 96-well microtiter plates was performed on the E. coli and S. epidermidis strains. […] Each test was performed in duplicate. The MIC was determined as the lowest concentration where no growth was observed, but the adjacent wells had growth as determined by optical density.

S. epidermidis HC3-CA-1 [2] = experiment: MIC in isolation, microbroth dilution; type: cell-based
Procedure: as §1

E. Coli HC1-R2A-1 [3] = experiment: MBC in isolation, subculture from MIC plates; type: cell-based
Procedure: (§2) This new microtiter plate was incubated at 37° C. and growth was quantified after 24 h by measuring the optical density in the wells.

S. epidermidis HC3-CA-1 [4] = experiment: MBC in isolation, subculture from MIC plates; type: cell-based
Procedure: as §2

E. Coli HC1-R2A-1 [5] = experiment: MIC in combination, checkerboard titration; conditions: in combination with tetracycline
Procedure: (§3) Microtiter plates were incubated at 37° C. for 24 h and the results were analyzed. Each test included a growth control without addition of any antimicrobials, as well as an uninoculated control column to ensure there was no contamination in the plate. The combination MIC was taken as the concentration where no growth was observed by optical density but the wells immediately adjacent had growth. To determine the MBC, 5 μL aliquots were removed from each well in the 96-well MIC plates above and used to inoculate a new microtiter plate that was filled with Mueller-Hinton media. This new microtiter plate was incubated at 37° C. for 24 h and growth was quantified by measuring the optical density in the wells.
(§4) The potential interaction of the two antimicrobials was determined by the FICI (fractional inhibitory concentration index) and FBCI (fractional bactericidal concentration index).

S. epidermidis HC3-CA-1 [6] = experiment: MIC in combination, checkerboard titration; conditions: in combination with tetracycline
Procedure: as §3, §4

E. Coli HC1-R2A-1 [7] = experiment: MBC in combination, checkerboard titration and subculture; conditions: in combination with tetracycline
Procedure: as §3, §4

S. epidermidis HC3-CA-1 [8] = experiment: as above; conditions: in combination with tetracycline
Procedure: as §3, §4

## O=C([O-])CN(CCN(CC(=O)[O-])CC(=O)[O-])CC(=O)[O-].[Na+].[Na+].[Na+].[Na+] [T-EDTA, tetrasodium EDTA]
E. Coli HC1-R2A-1 [1]
  MIC in Isolation, T-EDTA: 1 wt %
S. epidermidis HC3-CA-1 [2]; alone, 37° C., 24 h
  MIC in Isolation, T-EDTA: 0.0625 wt %
E. Coli HC1-R2A-1 [3]; alone
  MBC in Isolation, T-EDTA: 1 wt %
S. epidermidis HC3-CA-1 [4]; alone
  MBC in Isolation, T-EDTA: 4 wt %
E. Coli HC1-R2A-1 [5]
  MIC in Combination, T-EDTA: 0.25 wt %
S. epidermidis HC3-CA-1 [6]
  MIC in Combination, T-EDTA: 0.015 wt %
E. Coli HC1-R2A-1 [7]
  MBC in Combination, T-EDTA: 0.25 wt %
S. epidermidis HC3-CA-1 [8]
  MBC in Combination, T-EDTA: 0.25 wt %

## CN(C)[C@@H]1C(O)=C(C(N)=O)C(=O)[C@@]2(O)C(O)=C3C(=O)c4c(O)cccc4[C@@](C)(O)[C@H]3C[C@@H]12 [Tetracycline, tetracycline, reference compound]
S. epidermidis HC3-CA-1 [2]; Staphylococcus epidermidis, HC3CA1, read-out: MIC in Isolation, Tetracycline, alone, 37° C., 24 h
  MIC: 8 µg/mL (≈ 18 µM)
E. Coli HC1-R2A-1 [3]; Escherichia coli, read-out: MBC in Isolation, Tetracycline, alone
  MBC: 512 µg/mL (≈ 1150 µM)
S. epidermidis HC3-CA-1 [4]; Staphylococcus epidermidis, HC3CA1, read-out: MBC in Isolation, Tetracycline, alone
  MBC: 8 µg/mL (≈ 18 µM)
